Experiments:
[1] = Liquid, Vibrating tube method
[2] = xn = mol fraction of the nth substance listed; conditions: Liquid, Vibrating tube method, x2 = 0

C1CC[C@H]2CCCC[C@@H]2C1 [trans-decahydronaphthalene]
mass density [kg/m3], [1]
Conditions | 303.15 K | 323.15 K | 343.15 K
100 kPa | 862.1 | 847.1 | 832
5000 kPa | 865.4 | 850.9 | 836.2
10000 kPa | 868.7 | 854.4 | 840.1
15000 kPa | 871.6 | 857.8 | 843.9
20000 kPa | 874.6 | 861 | 847.4
25000 kPa | 877.6 | 864.1 | 850.8
30000 kPa | 880.3 | 867.1 | 854.1
35000 kPa | 882.9 | 870 | 857.2
40000 kPa | 885.6 | 872.8 | 860.3
45000 kPa | 888.2 | 875.6 | 863.2
50000 kPa | 890.6 | 878.3 | 866.1
55000 kPa | 893 | 880.8 | 868.8
60000 kPa | 895.3 | 883.4 | 871.5
65000 kPa | 897.6 | 885.8 | 874.2

C1CC[C@H]2CCCC[C@@H]2C1 [trans-decahydronaphthalene] + C1CC[C@H]2CCCC[C@H]2C1
mass density [kg/m3], [2]
Conditions | 303.15 K | 323.15 K | 343.15 K
100 kPa | 862.1 | 847.1 | 832
5000 kPa | 865.4 | 850.9 | 836.2
10000 kPa | 868.7 | 854.4 | 840.1
15000 kPa | 871.6 | 857.8 | 843.9
20000 kPa | 874.6 | 861 | 847.4
25000 kPa | 877.6 | 864.1 | 850.8
30000 kPa | 880.3 | 867.1 | 854.1
35000 kPa | 882.9 | 870 | 857.2
40000 kPa | 885.6 | 872.8 | 860.3
45000 kPa | 888.2 | 875.6 | 863.2
50000 kPa | 890.6 | 878.3 | 866.1
55000 kPa | 893 | 880.8 | 868.8
60000 kPa | 895.3 | 883.4 | 871.5
65000 kPa | 897.6 | 885.8 | 874.2

— the NIST ThermoML archive (doi:10.1016/j.fluid.2006.12.011)
